Experimental findings from patent US10519154B2, “7-substituted 1-pyridyl-naphthyridine-3-carboxylic acid amides and use thereof” (Bayer Pharma Aktiengesellschaft, priority 2016, dated 2019) are described below.

Structures are written as SMILES.

This assay concerns the target T1, human M2 receptor (Homo sapiens, UniProt P08172).
T1 sequence (P08172 1-466): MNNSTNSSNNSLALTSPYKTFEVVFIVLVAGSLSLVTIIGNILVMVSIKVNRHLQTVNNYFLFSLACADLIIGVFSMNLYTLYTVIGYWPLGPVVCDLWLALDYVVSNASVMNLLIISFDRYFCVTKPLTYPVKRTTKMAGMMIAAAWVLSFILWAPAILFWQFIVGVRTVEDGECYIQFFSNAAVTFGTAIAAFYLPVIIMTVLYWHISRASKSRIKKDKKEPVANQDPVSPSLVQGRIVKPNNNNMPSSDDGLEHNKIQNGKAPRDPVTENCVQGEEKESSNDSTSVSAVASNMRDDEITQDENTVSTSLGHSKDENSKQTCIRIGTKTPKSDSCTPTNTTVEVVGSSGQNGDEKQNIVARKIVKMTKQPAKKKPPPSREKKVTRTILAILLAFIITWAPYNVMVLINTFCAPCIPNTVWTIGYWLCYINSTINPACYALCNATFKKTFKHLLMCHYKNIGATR
Description: Functional M2-GIRK1/4 activation test: allosteric potency (EC50) and efficiency. Particulars: for EC50: Receptor activity EC50, CHO-DUKX-M2-GIRK cells, acetylcholine at EC20, in some cases mean of two or more determinations; for Emax: read-out: Efficiency, boosting of the acetylcholine effect at EC20 acetylcholine concentration, CHO-DUKX-M2-GIRK cells.

Take `O=C(NC(c1ccc(F)cc1)C(F)(F)F)c1cn(-c2ncc(F)cc2F)c2nc(N3C[C@@H](O)CC3=O)ccc2c1=O` (mixture of isomers) [Example 11, 1-(3,5-Difluoropyridin-2-yl)-7-[(4S)-4-hydroxy-2-oxopyrrolidin-1-yl]-4-oxo-N-[2,2,2-trifluoro-1-(4-fluorophenyl)ethyl]-1,4-dihydro-1,8-naphthyridine-3-carboxamide]: a half-maximal effect (EC50) was put at 37 nM and the Emax came to 99.5%.

Consider `O=C(N[C@H](C1CC1)C(F)(F)F)c1cn(-c2ncc(F)cc2F)c2nc(N3CC4CC4(O)C3)ccc2c1=O` (mixture of isomers) [Example 37, N-[(1R)-1-Cyclopropyl-2,2,2-trifluoroethyl]-1-(3,5-difluoropyridin-2-yl)-7-[1-hydroxy-3-azabicyclo[3.1.0]hex-3-yl]-4-oxo-1,4-dihydro-1,8-naphthyridine-3-carboxamide], for which the midpoint of the response, the EC50, lay at 21 nM and the Emax was 99%.

Regarding `CC[C@@H](NC(=O)c1cn(-c2ncc(F)cc2F)c2nc(N3CC4CC4(O)C3)ccc2c1=O)C(F)(F)F` (mixture of isomers) [Example 43, 1-(3,5-Difluoropyridin-2-yl)-7-[1-hydroxy-3-azabicyclo[3.1.0]hex-3-yl]-4-oxo-N-[(2R)-1,1,1-trifluorobutan-2-yl]-1,4-dihydro-1,8-naphthyridine-3-carboxamide], the EC50 was 65 nM and the Emax was 100%.

As to `CC[C@@H](NC(=O)c1cn(-c2ncc(F)cc2F)c2nc(N3CCC(C)(O)C3)ccc2c1=O)C(F)(F)F` (mixture of isomers) [Example 46, 1-(3,5-Difluoropyridin-2-yl)-7-[3-hydroxy-3-methylpyrrolidin-1-yl]-4-oxo-N-[(2R)-1,1,1-trifluorobutan-2-yl]-1,4-dihydro-1,8-naphthyridine-3-carboxamide], the EC50 worked out at 385 nM and the Emax was 97%.

With `CC[C@@H](NC(=O)c1cn(-c2ncccc2Cl)c2nc(N3CC4CC4(O)C3)ccc2c1=O)C(F)(F)F` (mixture of isomers) [Example 47, 1-(3-Chloropyridin-2-yl)-7-[1-hydroxy-3-azabicyclo[3.1.0]hex-3-yl]-4-oxo-N-[(2R)-1,1,1-trifluorobutan-2-yl]-1,4-dihydro-1,8-naphthyridine-3-carboxamide], the response was half-maximal at 640 nM (EC50) and the Emax turned out to be 89%.

As to `CC[C@@H](NC(=O)c1cn(-c2ncc(F)cc2Cl)c2nc(N3CC4CC4(O)C3)ccc2c1=O)C(F)(F)F` (mixture of isomers) [Example 48, 1-(3-Chloro-5-fluoropyridin-2-yl)-7-[1-hydroxy-3-azabicyclo[3.1.0]hex-3-yl]-4-oxo-N-[(2R)-1,1,1-trifluorobutan-2-yl]-1,4-dihydro-1,8-naphthyridine-3-carboxamide], the concentration for a half-maximal effect (EC50) was found to be 74 nM and the Emax turned out to be 92.5%.

Take `CC[C@@H](NC(=O)c1cn(-c2ncc(F)cc2Cl)c2nc(N3CCC(C)(O)C3)ccc2c1=O)C(F)(F)F` (mixture of isomers) [Example 49, 1-(3-Chloro-5-fluoropyridin-2-yl)-7-[3-hydroxy-3-methylpyrrolidin-1-yl]-4-oxo-N-[(2R)-1,1,1-trifluorobutan-2-yl]-1,4-dihydro-1,8-naphthyridine-3-carboxamide]: the EC50 was 560 nM and the Emax was 97%.

For the compound `O=C(N[C@H](C1CC1)C(F)(F)F)c1cn(-c2ncc(F)cc2Cl)c2nc(N3CC4CC4(O)C3)ccc2c1=O` (mixture of isomers) [Example 52, 1-(3-Chloro-5-fluoropyridin-2-yl)-N-[(1R)-1-cyclopropyl-2,2,2-trifluoroethyl]-7-[1-hydroxy-3-azabicyclo[3.1.0]hex-3-yl]-4-oxo-1,4-dihydro-1,8-naphthyridine-3-carboxamide], the EC50 turned out to be 48 nM and the Emax was 90.5%.

Take `CC1(O)CCN(c2ccc3c(=O)c(C(=O)N[C@H](C4CC4)C(F)(F)F)cn(-c4ncc(F)cc4Cl)c3n2)C1` (mixture of isomers) [Example 53, 1-(3-Chloro-5-fluoropyridin-2-yl)-N-[(1R)-1-cyclopropyl-2,2,2-trifluoroethyl]-7-[3-hydroxy-3-methylpyrrolidin-1-yl]-4-oxo-1,4-dihydro-1,8-naphthyridine-3-carboxamide]: the EC50 is 555 nM and the Emax is 96.5%.

For the compound `O=C(N[C@H](C1CC1)C(F)(F)F)c1cn(-c2ncccc2Cl)c2nc(N3CC4CC4(O)C3)ccc2c1=O` (mixture of isomers) [Example 54, 1-(3-Chloropyridin-2-yl)-N-[(1R)-1-cyclopropyl-2,2,2-trifluoroethyl]-7-[1-hydroxy-3-azabicyclo[3.1.0]hex-3-yl]-4-oxo-1,4-dihydro-1,8-naphthyridine-3-carboxamide], the EC50 came out at 350 nM and the Emax is 94.7%.

`O=C(NC(C(F)(F)F)C(F)(F)F)c1cn(-c2ncc(F)cc2F)c2nc(N3CC4CC4(O)C3)ccc2c1=O` (racemic) [Example 57, 1-(3,5-Difluoropyridin-2-yl)-N-(1,1,1,3,3,3-hexafluoropropan-2-yl)-7-[1-hydroxy-3-azabicyclo[3.1.0]hex-3-yl]-4-oxo-1,4-dihydro-1,8-naphthyridine-3-carboxamide]: it took 10 nM to reach a half-maximal effect (EC50) and the Emax stood at 94%.

Take `CC1(O)CCN(c2ccc3c(=O)c(C(=O)Nc4c(Cl)cccc4Cl)cn(-c4ncc(F)cc4F)c3n2)C1` (racemic) [Example 69, N-(2,6-Dichlorophenyl)-1-(3,5-difluoropyridin-2-yl)-7-[3-hydroxy-3-methylpyrrolidin-1-yl]-4-oxo-1,4-dihydro-1,8-naphthyridine-3-carboxamide]: the EC50 is 365 nM and the Emax came out at 92%.

For `CC(NC(=O)c1cn(-c2ncc(F)cc2F)c2nc(N3C[C@@H](O)CC3=O)ccc2c1=O)C(F)(F)C(F)(F)F` (mixture of isomers) [Example 76, 1-(3,5-Difluoropyridin-2-yl)-7-[(4S)-4-hydroxy-2-oxopyrrolidin-1-yl]-4-oxo-N-[3,3,4,4,4-pentafluorobutan-2-yl]-1,4-dihydro-1,8-naphthyridine-3-carboxamide], a half-maximal response (EC50) required 35 nM and the Emax was 94%.

For the compound `O=C(NC(c1ccccc1Cl)C(F)(F)F)c1cn(-c2ncc(F)cc2F)c2nc(N3C[C@@H](O)[C@H](O)C3)ccc2c1=O` (mixture of isomers) [Example 83, N-[1-(2-Chlorophenyl)-2,2,2-trifluoroethyl]-1-(3,5-difluoropyridin-2-yl)-7-[(3R,4R)-3,4-dihydroxypyrrolidin-1-yl]-4-oxo-1,4-dihydro-1,8-naphthyridine-3-carboxamide], a half-maximal response (EC50) required 17 nM and the Emax worked out at 100%.

As to `CC(NC(=O)c1cn(-c2ncc(F)cc2F)c2nc(N3C[C@@H](O)[C@H](O)C3)ccc2c1=O)C(F)(F)C(F)(F)F` (mixture of isomers) [Example 88, 1-(3,5-Difluoropyridin-2-yl)-7-[(3R,4R)-3,4-dihydroxypyrrolidin-1-yl]-4-oxo-N-[3,3,4,4,4-pentafluorobutan-2-yl]-1,4-dihydro-1,8-naphthyridine-3-carboxamide], a half-maximal effect (EC50) was put at 59 nM and the Emax came out at 99.5%.

Take `CCC(NC(=O)c1cn(-c2ncc(F)cc2F)c2nc(N3C[C@@H](O)CC3=O)ccc2c1=O)C(F)(F)C(F)(F)F` (mixture of isomers) [Example 92, 1-(3,5-Difluoropyridin-2-yl)-7-[(4S)-4-hydroxy-2-oxopyrrolidin-1-yl]-4-oxo-N-[1,1,1,2,2-pentafluoropentan-3-yl]-1,4-dihydro-1,8-naphthyridine-3-carboxamide]: the EC50 is 17 nM and the Emax is 100%.
